pIC50: −log10 of the molar value.
Target: T1, hMCH-1R (Homo sapiens, UniProt Q99705)
T1 construct: expressed in transfected cells; host or cells: CHO/Galpha 16 cells, stably transfected; membranes used
Assay: MCH-1 receptor binding test
Details: 125I-MCH binding, membranes from CHO/Galpha 16 cells stably transfected with human hMCH-1R
Experimental: Membranes from CHO/Galpha 16 cells stably transfected with human hMCH-1R are resuspended using a syringe (needle 0.6×25 mm) and diluted in test buffer (50 mM HEPES, 10 mM MgCl2, 2 mM EGTA, pH 7.00; 0.1% bovine serum albumin (protease-free), 0.021% bacitracin, 1 μg/mL aprotinin, 1 μg/mL leupeptin and 1 μM phosphoramidone) to a concentration of 5 to 15 μg/mL. […] After the incubation the reaction is filtered using a cell harvester through 0.5% PEI treated fiberglass filters (GF/B, Unifilter Packard). The membrane-bound radioactivity retained on the filter is then determined after the addition of scintillator substance (Packard Microscint 20) in a measuring device (TopCount of Packard). […] The analysis of the concentration binding curve is carried out on the assumption of one receptor binding site.

T1 sequence (Q99705 whole entry): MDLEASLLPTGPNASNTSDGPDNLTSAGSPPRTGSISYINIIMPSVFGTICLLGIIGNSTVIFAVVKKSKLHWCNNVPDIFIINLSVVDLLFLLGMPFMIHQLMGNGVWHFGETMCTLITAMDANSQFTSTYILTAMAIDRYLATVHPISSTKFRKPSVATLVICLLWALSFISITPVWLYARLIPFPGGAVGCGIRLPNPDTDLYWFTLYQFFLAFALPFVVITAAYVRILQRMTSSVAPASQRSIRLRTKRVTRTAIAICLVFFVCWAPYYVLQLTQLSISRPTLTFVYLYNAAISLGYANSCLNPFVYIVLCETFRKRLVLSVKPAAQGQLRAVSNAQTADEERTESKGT

SMILES	pIC50
NC(=O)C1CCN([C@H]2CCN(c3ccc(C#Cc4ccc(-c5ccc(Cl)cc5)cn4)cn3)C2)CC1 [Example 6.3, (S)-1-(1-{5-[5-(4-chlorophenyl)pyridin-2-ylethynyl]pyridin-2-yl}pyrrolidin-3-yl)piperidin-4-carboxylic acid amide]	8.43
CCCN(CC1CC1)[C@H](C)/C=C(\C)c1ccc(C#Cc2ccc(-c3ccc(Cl)cc3)cn2)cc1 [Example 15.5, ((E)-(R)-3-{4-[5-(4-chlorophenyl)pyridin-2-ylethynyl]phenyl}-1-methylbut-2-enyl)cyclopropylmethylpropylamine]	7.60

From patent US20050245529A1 (Boehringer Ingelheim International GmbH, priority 2004, published 2005)
